For series [1], the target named is T1, Sodium-dependent phosphate transport protein 2B (Homo sapiens, UniProt O95436).
T1 sequence (O95436 whole entry): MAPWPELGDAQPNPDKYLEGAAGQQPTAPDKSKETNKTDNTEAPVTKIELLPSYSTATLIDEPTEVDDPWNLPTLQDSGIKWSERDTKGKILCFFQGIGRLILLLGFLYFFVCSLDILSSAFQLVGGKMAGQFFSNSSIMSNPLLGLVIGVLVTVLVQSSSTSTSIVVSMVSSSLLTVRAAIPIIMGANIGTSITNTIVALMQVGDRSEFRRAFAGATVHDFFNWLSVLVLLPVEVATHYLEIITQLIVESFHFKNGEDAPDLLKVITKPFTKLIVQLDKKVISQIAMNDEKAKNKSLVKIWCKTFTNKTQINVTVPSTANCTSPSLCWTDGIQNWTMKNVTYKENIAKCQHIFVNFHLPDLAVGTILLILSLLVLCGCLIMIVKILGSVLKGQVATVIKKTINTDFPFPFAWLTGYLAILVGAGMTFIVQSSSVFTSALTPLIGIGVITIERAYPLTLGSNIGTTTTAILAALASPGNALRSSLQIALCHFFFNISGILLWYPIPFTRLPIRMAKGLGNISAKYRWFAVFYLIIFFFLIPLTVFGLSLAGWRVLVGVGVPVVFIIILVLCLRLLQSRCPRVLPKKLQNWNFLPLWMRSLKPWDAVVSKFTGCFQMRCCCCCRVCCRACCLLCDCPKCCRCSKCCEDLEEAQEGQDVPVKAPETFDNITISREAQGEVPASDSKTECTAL
The series can be described thus: Inhibition of human NaPi2b expressed in CHO-K1 cells assessed as reduction in [33P] uptake preincubated with compound for 30 mins followed by [33P]O4 addition and measured after 30 mins by TopCount liquid scintillation counting method. It is filed as cell-based.

Series [2] is described as follows: Oral bioavailability in Sprague-Dawley rat at 10 mg/kg administered as single dose by LC-MS analysis. The following applies: in vivo. It is filed as ADME, organism-based.
Series [3] can be described thus: Solubility of the compound in fasted state simulated intestinal fluid at pH 6.5 incubated for 24 hrs by HPLC analysis. It is filed as physicochemical.
The nature of series [4]: AUC (0 to t) in Sprague-Dawley rat at 10 mg/kg, po administered as single dose by LC-MS analysis. In kind it is ADME, organism-based. More on the design: dose 10 mg/kg, route po. The following applies: in vivo.
Series [5] can be described thus: Cmax in Sprague-Dawley rat at 10 mg/kg, po administered as single dose by LC-MS analysis. Set-up: dose 10 mg/kg, route po. The following applies: in vivo. In kind it is ADME, organism-based.
The nature of series [6]: Solubility of the compound in fed state simulated intestinal fluid at pH 5.0 incubated for 24 hrs by HPLC analysis. It is filed as physicochemical.
In series [7] the target is T2, Sodium-dependent phosphate transport protein 2B (Rattus norvegicus, UniProt Q9JJ09).
T2 sequence (Q9JJ09 whole entry): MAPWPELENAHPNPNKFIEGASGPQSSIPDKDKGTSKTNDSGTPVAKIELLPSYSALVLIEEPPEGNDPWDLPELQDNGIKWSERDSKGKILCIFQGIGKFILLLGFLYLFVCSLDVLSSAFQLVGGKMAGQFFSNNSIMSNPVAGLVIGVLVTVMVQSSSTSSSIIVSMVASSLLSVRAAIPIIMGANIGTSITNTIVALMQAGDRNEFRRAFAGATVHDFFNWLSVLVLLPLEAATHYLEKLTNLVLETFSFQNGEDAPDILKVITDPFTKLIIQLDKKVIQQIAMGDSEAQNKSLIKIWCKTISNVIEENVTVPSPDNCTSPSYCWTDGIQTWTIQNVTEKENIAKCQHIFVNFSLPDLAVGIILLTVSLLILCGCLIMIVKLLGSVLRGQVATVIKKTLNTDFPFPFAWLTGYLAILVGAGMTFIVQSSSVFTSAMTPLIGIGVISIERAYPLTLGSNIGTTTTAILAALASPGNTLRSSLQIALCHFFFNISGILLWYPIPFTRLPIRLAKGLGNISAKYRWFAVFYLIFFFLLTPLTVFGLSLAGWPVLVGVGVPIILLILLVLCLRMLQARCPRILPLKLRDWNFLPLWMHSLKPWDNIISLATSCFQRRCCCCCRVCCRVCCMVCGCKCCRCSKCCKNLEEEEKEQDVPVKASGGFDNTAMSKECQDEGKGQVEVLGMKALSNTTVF
The series can be described thus: Inhibition of rat NaPi2b expressed in CHO-K1 cells assessed as reduction in [33P] uptake preincubated with compound for 30 mins followed by [33P]O4 addition and measured after 10 mins by TopCount liquid scintillation counting method. In kind it is cell-based.

Series [8] can be described thus: Drug excretion in Sprague-Dawley rat feces assessed as cumulative amount of unchanged drug excreted at 10 mg/kg, po administered as single dose and measured within 24 hrs by LC-MS analysis. In kind it is ADME, organism-based. To be noted: faeces, read-out: Ae.
Series [9] is described as follows: AUC (0 to t) in Sprague-Dawley rat at 1 mg/kg, iv administered as single dose by LC-MS analysis. It is filed as ADME, organism-based. Set-up: dose 1 mg/kg, route iv. To be noted: in vivo.
A short description of series [10]: Drug concentration in Sprague-Dawley rat intestine at 10 mg/kg, po administered as single dose. It is filed as ADME, organism-based. The following applies: in vivo.
The subject of a further series is Rattus norvegicus. In words: In vivo inhibition of NaPi2b in Sprague-Dawley rat assessed as reduction in phosphate absorption at 10 mg/kg, po preincubated for 5 mins followed by addition of NaH2PO4 containing 32P-phosphate solution and measured after 15 to 30 mins by liquid scintillation counting method. In kind it is functional, organism-based. To be noted: time 20.0 min.

Series [11] in a line: AUC (0 to t) in Sprague-Dawley rat at 1.17 mg/kg, iv administered as single dose by LC-MS analysis. In kind it is ADME, organism-based. More on the design: dose 1.17 mg/kg, route iv. To be noted: in vivo.
Series [12] concerns the target T3, Sodium-dependent phosphate transport protein 2B (Homo sapiens) (UniProt O95436).
T3 sequence (whole entry): T1 sequence (O95436 whole entry)
The series can be described thus: Inhibition of human NaPi2b at 1 uM relative to control.

Series [13] deals with T1, Sodium-dependent phosphate transport protein 2B. In words: Inhibition of NaPi2b (unknown origin).

Results on 16 compounds are retold here after ChEMBL document CHEMBL5120876, “Design, synthesis and biological evaluation of novel indole derivatives as gut-selective NaPi2b inhibitors” (Bioorg Med Chem, 2022).

Converted amounts (≈) assume the structure as drawn. The source made the active and inactive calls. No cut-off for these calls is given here.

A word on the IC50: it is the midpoint of a concentration-inhibition curve. On to `CCC(CC)N(CCN(C)S(=O)(=O)NC(=O)OCC(=O)O)Cc1cccc(C(=O)Nc2[nH]c3ccccc3c2C(=O)Nc2ccc(CCCc3ccc(C(=O)O)cc3)cc2)c1`, for which, in [1], the IC50 worked out at 267 nM.

One may read the bioavailability as dose-corrected exposure relative to a reference, in per cent. As a reminder, the solubility is the concentration that dissolves in the medium under given conditions. Low values mean little dissolved substance, high ones much dissolved substance. By AUC(0-t) is commonly meant the area under the concentration-time curve up to a stated or last time point. A low value points to less exposure. In general, Cmax refers to the peak of the concentration-time curve. Take `CCC(CC)N(CCN(C)C(=O)CCC(=O)O)Cc1cccc(C(=O)Nc2[nH]c3ccccc3c2C(=O)Nc2ccc(CCCc3ccc(C(=O)O)cc3)cc2)c1`: the bioavailability in series [2] was found to be 13.1%. Also, the figures for the solubility at 24 h in [3] and in series [6] were 103 µg/mL (≈ 133 µM) and 264 µg/mL (≈ 341 µM), respectively. The AUC(0-t) amounted to 1090 ng·h/mL in series [4] and 834 ng·h/mL in series [9]. Also, the Cmax in series [5] amounted to 568 ng/mL. Also, the half-inhibitory concentration (IC50) in series [1] came to 71 nM; in series [7] it was 28 nM. Besides, in [8], the dose excreted at 24 h came to 68.1%. Besides, in series [10], the Ct amounted to 39 µg/mL.

As for `CCC(CC)N(CCN(C)C(=O)CCC(=O)O)Cc1cccc(C(=O)Nc2[nH]c3ccccc3c2C(=O)Nc2ccccc2)c1`, the IC50 in series [1] was determined as 538 nM.

On to `CN(Cc1cccc(C(=O)Nc2[nH]c3ccccc3c2C(=O)Nc2ccc(CCCc3ccc(C(=O)O)cc3)cc2)c1)C1CCN(C(=O)CCC(=O)O)C1` (stereo not given), for which the IC50 in [1] turned out to be 2580 nM.

For `CCC(CC)N(CCN(C)C(=O)CCC(=O)O)Cc1cccc(C(=O)Nc2[nH]c3ccccc3c2C(=O)Nc2ccc(Cc3ccc(C(=O)O)cc3)cc2)c1`, the IC50 in series [1] was 448 nM.

Consider `CN(C(=O)CCC(=O)O)C1CCN(Cc2cccc(C(=O)Nc3[nH]c4ccccc4c3C(=O)Nc3ccc(CCCc4ccc(C(=O)O)cc4)cc3)c2)C1` (stereo not given), for which the IC50 in series [1] stood at 1020 nM.

The inhibition is the change of the read-out against control, counted positive when it falls. For `CCC(CC)N(CCN(C)C(=O)CCC(=O)NCCOCCOCCOCCO)Cc1cccc(C(=O)Nc2[nH]c3ccccc3c2C(=O)Nc2ccc(CCCc3ccc(C(=O)O)cc3)cc2)c1`, in the series with Rattus norvegicus, the inhibition entry is “Active”. The compound further registered a bioavailability in series [2] of 1.1%. Besides, the solubility at 24 h was greater than 482 µg/mL in series [3] and greater than 479 µg/mL in series [6]. The exposure AUC(0-t) stood at 15.4 ng·h/mL in [4] and 170 ng·h/mL in series [11]. The Cmax in [5] was 15.5 ng/mL. Further, the IC50 turned out to be 166 nM in series [1] and 98 nM in series [7]. The dose excreted at 24 h in series [8] is 58.8%. In series [10], this compound registered a Ct of 34 µg/mL.

As to `CCC(CC)N(CCN(C)C(=O)CN1C(=O)NC2NC(=O)NC21)Cc1cccc(C(=O)Nc2[nH]c3ccccc3c2C(=O)Nc2ccc(CCCc3ccc(C(=O)O)cc3)cc2)c1` (stereo not given), the half-maximal inhibitory concentration (IC50) in series [1] was determined as 401 nM.

On to `CCN([C@H]1CC[C@H](C(=O)O)CC1)S(=O)(=O)c1cccc(C(=O)Nc2[nH]c3ccccc3c2C(=O)Nc2ccc(CCCc3ccc(C(=O)O)cc3)cc2)c1`, for which the IC50 in [1] is 257 nM.

As for `CCC(CC)N(CCN(C)C(=O)CCC(=O)O)Cc1cccc(C(=O)Nc2sc3c(c2C(=O)Nc2ccc(CCc4ccc(C(=O)O)cc4)cc2)CCCC3)c1`, in series [12], the inhibition is 87%.

Consider `CCC(CC)N(CCN(C)C(=O)NCC(=O)O)Cc1cccc(C(=O)Nc2[nH]c3ccccc3c2C(=O)Nc2ccc(CCCc3ccc(C(=O)O)cc3)cc2)c1`, for which, in series [1], the IC50 was 369 nM.

Turning to `CC(C)N(CCN(C)C(=O)CCC(=O)O)Cc1cccc(C(=O)Nc2[nH]c3ccccc3c2C(=O)Nc2ccc(CCCc3ccc(C(=O)O)cc3)cc2)c1`, the IC50 in [1] was found to be 356 nM.

`CCC(CC)N(CCN(C)C(=O)CCC(=O)NCCOCCOCCOCCC(=O)O)Cc1cccc(C(=O)Nc2[nH]c3ccccc3c2C(=O)Nc2ccc(CCCc3ccc(C(=O)O)cc3)cc2)c1`: the IC50 in series [1] is 535 nM.

In the case of `CCC(CC)N(CCN(C)C(=O)CNS(=O)(=O)c1c[nH]c(C(N)=O)c1)Cc1cccc(C(=O)Nc2[nH]c3ccccc3c2C(=O)Nc2ccc(CCCc3ccc(C(=O)O)cc3)cc2)c1`, the IC50 in [1] came to 401 nM.

Compound `CCN(CC)c1ccc(NC(=O)c2cccc(CSCCOCCOCCOCCOCCOCCOCCOCCOCCC(=O)O)c2)c(-c2cc(C(=O)NCc3cccc(C(F)(F)F)c3)ccn2)c1` had an IC50 in series [13] of 1000 nM.

For `CCCC(CCC)N(CCN(C)C(=O)CCC(=O)O)Cc1cccc(C(=O)Nc2[nH]c3ccccc3c2C(=O)Nc2ccc(CCCc3ccc(C(=O)O)cc3)cc2)c1`, the IC50 in series [1] was 78 nM.
